Data: patent US7838468B2, “High molecular weight polyamine salts as clay stabilizing agents” (Baker Hughes Incorporated, priority 2003, dated 2010)

Experiment: permeability of Bandera sandstone (clay stabilization)
Settings: API standard brine and tap water, 150° F. (66° C.)
Procedure: FIG. 1 is a graph of the effect of TMAC and Tap Water on the permeability of Bandera Sandstone at 150° F. (66° C.);
FIG. 2 is a graph of the effect of A4819 and Tap Water on the permeability of Bandera Sandstone at 150° F. (66° C.); and
FIG. 3 is a graph of the effect of A4840 and Tap Water on the permeability of Bandera Sandstone at 150° F. (66° C.).
The products TMAC (tetramethylammonium chloride), A4819 and A4840 were tested on an API standard brine and tap water on Bandera sandstone for permeability.

Compound: C[N+](C)(C)C.[Cl-] [TMAC, tetramethylammonium chloride]
- maintaining permeability (measure that the clay is stable): performed well
